“And” between values parts separate entries of the source, which are not always exact repeats. Equal entries are not always repeated. “Also recorded” adds a separate entry of the source. Square brackets hold non-standard residues; d marks the D form. Peptide text beside a SMILES is read from it. dNMeL = CN[C@H](CC(C)C)C(=O)O
Experiments:
[1] = target: T1, synthetic peptide fragment corresponding to residues 11 to 25 of the Alzheimer's Aβ peptide (Homo sapiens, UniProt P05067); assay: thioflavin T fluorescence assay of Aβ peptide fragment aggregation into amyloid fibrils; assay type: biochemical
T1 construct: residues 11 to 25 of the Alzheimer's Aβ peptide
Protocol: Peptide X (SEQ ID NO: 2) was dissolved in water to a concentration of 10 mM (about 10 mg/ml). […]

[2] = target: T2, Alzheimer's Aβ peptide fragment (Homo sapiens, UniProt P05067); assay: electron microscopy of Aβ peptide fragment aggregation; assay type: biochemical; settings: 500 mM (so in the source) Peptide X, FIGS. 6 and 7
T2 construct: residues 11 to 25 of the Alzheimer's Aβ peptide
Protocol: Peptide X (SEQ ID NO: 2) was dissolved in water to a concentration of 10 mM (about 10 mg/ml). Alzheimer's Aβ peptide fragment, at a concentration of 50/M (about 0.1 mg/ml) in 50 mM sodium acetate buffer (pH 5.0), was incubated at 25° C. in the absence or presence of Peptide X (SEQ ID NO: 2) at concentrations ranging from 100 μM to 1 mM; the aggregation of the Aβ peptide fragment into insoluble β-fibres in the solutions was determined quantitatively after 20 minutes by measuring the fluorescence of 1%M added thioflavin T at 482 nm using an excitation wavelength of 440 nm. […] aliquots of these solutions were then analysed by electron microscopy to confirm that Peptide X (SEQ ID NO: 2) had inhibited and/or reversed the aggregation of the Alzheimer's Aβ peptide fragment into insoluble β-fibres.

[3] = solubility in aqueous solutions; assay type: physicochemical; settings: over a wide range of pH values
Description: The two positively charged arginine side chains assist the peptide to penetrate cell membranes and the blood-brain barrier by making electrostatic interactions with the negatively charged phosphate head groups of their constituent phospholipid molecules, resulting in the formation of inverted micelles which carry the peptide molecules across these membranes.

## CC(=O)N[C@H](CC(C)C)C(=O)N(C)[C@H](CC(C)C)C(=O)N[C@H](CC(C)C)C(=O)N(C)[C@H](CC(C)C)C(=O)N[C@H](CCCNC(=N)N)C(=O)N[C@H](CCCNC(=N)N)C(N)=O [Peptide X, Nα-acetyl-(D-leucine)-(Nα-methyl-D-leucine)-(D-leucine)-(Nα-methyl-D-leucine)-(D-arginine)-(D-arginine)-NH2] (Ac-[dL][dNMeL][dL][dNMeL][dR][dR]-NH2)
[1]; 200 μM Peptide X, Aβ fragment in 50 mM sodium acetate pH 5.0, 25° C., 20 minutes, FIG. 5
  inhibition at 200 µM: > 60%
[1]; Peptide X added to the Aβ peptide fragment after incubation
  disaggregation of preformed amyloid fibrils: able to disaggregate preformed amyloid fibrils
[1]; Peptide X concentration of 100 mM (so in the source), FIG. 5
  reduction in Alzheimer's Aβ peptide aggregation: 50%
[2]
  inhibition of aggregation of Aβ peptide fragment into amyloid fibrils by electron microscopy: almost completely inhibited aggregation; also recorded: substantial elimination of aggregation
[3]
  solubility: ≥ 10000 µM and ≥ 10000 µg/mL

Reference: patent publication US7060671B1, “Peptides containing N-substituted D-amino acids for preventing β-strand association” (Senexis Limited, priority 1999, dated 2006)
